Results taken from patent US9877479B2, “Pamoic acid blocks ethelyne signaling” (THE REGENTS OF THE UNIVERSITY OF CALIFORNIA, priority 2010, dated 2018).
Entries after “also recorded” stand apart in the source; their conditions may differ.

Assays:
Format in all cases: in vivo
[1] = test system: auxin inducible reporter gene called DR5; assay: Auxin inducible reporter gene DR5 expression; conditions: auxin treatment; PA especially at high levels
Method: The effects of auxin on an auxin inducible reporter gene called DR5 were measured. Normally, auxin treatment results in increased expression of DR5, which is evidenced by blue color in the roots and leaf tip.

[2] = test system: wild type roots; assay: Gravitropic response of seedlings
Method: (§1) This is not a toxicity issue in due to the data in panels 10B and C. In panel 10B, seedlings were grown in the absence or presence of a highly inhibitory amount of NAA. A subset of these seedlings also had PA added to them. […] Gravitropism is a well know auxin dependent phenomenon.

[3] = test system: seedling roots; assay: Root growth in presence of a highly inhibitory amount of NAA, with or without PA; conditions: PA added
Method: as §1

[4] = test system: genes that require both ethylene and auxin for induction; assay: Expression of genes dependent on auxin and ethylene in presence of PA; conditions: in the presence of PA (panel 12B)
Method: (§2) Since PA reduces ethylene response, it was natural to assume that it would also reduce ethylene mediated gene expression. […] PA was then tested on gene expression that was dependent on auxin and ethylene.

[5] = test system: Mutant Arabidopsis seedlings (ctrl-3); assay: Constitutive ethylene response phenotype of mutant seedlings
Method: FIG. 3. Mutant Arabidopsis seedlings (ctrl-3) that have a constitutive ethylene response phenotype, including severe root shortening dependent on unregulated ethylene signaling, were grown in the light in nutrient medium supplemented with either 0 or 10 μM pamoic acid for 7 days. Following this, roots of each were measured (n=40).
(§3) FIG. 5. Wild type Arabidopsis seedlings were grown for four days in the dark in the presence of saturating ethylene (100 ppm) and either 0 or 10 μM pamoic acid after which it was determined whether aspects of the ethylene dependent seedling triple response were affected.
(§4) This is a dark phenotype that results in severe stunting of shoot and root growth along with a pronounced apical hook in the presence of saturating ethylene. This phenotype is ultimately conditioned by auxin acting through ethylene. […] FIG. 5 represents a mutant that has constitutive ethylene signaling (ctr1) and FIGS. 6 and 7 represents wild type treated with ethylene+/−PA.

[6] = test system: seedling roots; assay: Growth of seedlings on increasing amounts of PA (root growth)
Method: as §1

[7] = test system: Wild type Arabidopsis seedlings; assay: Ethylene dependent seedling triple response, dark, saturating ethylene
Method: as §3
FIG. 6. Wild type Arabidopsis seedlings were grown for four days in the dark in the presence of either the ethylene perception inhibitor AgNO3 or saturating ethylene (100 ppm) along with either 0 or 10 μM pamoic acid. Following this, hypocotyl length and number of seedlings presenting an ethylene dependent apical hook in the presence of saturating ethylene (shown as percentages) were determined (n=40).
FIG. 7. Wild type Arabidopsis seedlings were grown for four days in the dark in the presence of either air or saturating ethylene (100 ppm) along with either 0 or 10 μM pamoic acid. Following this, root length was measured for each treatment (n=40).
as §4

[8] = test system: Flowers of Dianthus caryophyllus (carnation); assay: Ethylene dependent flower senescence of cut carnations; conditions: cut flowers in water supplemented with 50 μM pamoic acid, observed to Day 8
Method: FIG. 8. Flowers of Dianthus caryophyllus (carnation) were harvested and immediately placed cut side down into either water or water supplemented with 50 μM pamoic acid.

[9] = test system: ethylene inducible genes; assay: Ethylene inducible gene expression in presence of PA; conditions: ethylene treatment in the presence of PA (panel 12A); listed as PA
Method: as §2

[10] = wild type, four days in the dark, saturating ethylene (100 ppm), 10 μM pamoic acid

SMILES	DR5 expression [1]	gravitropism of roots and shoots ([2]; in the presence of PA)	gravitropic response of seedling roots ([2]; wild type roots treated with PA)	length of PA+NAA treated roots relative to NAA treated roots [3]	expression of two genes that require both ethylene and auxin for induction [4]	constitutive ethylene response of ctrl-3 mutants ([5]; ctrl-3 mutants)	ethylene response phenomena including apical hook formation and root growth inhibition ([5]; mutant with constitutive ethylene signaling (ctr1), FIG. 5)	root growth at high concentrations of PA ([6]; high concentrations of PA)	root length with increasing amounts of PA ([6]; increasing amounts of PA)	ethylene response phenomena including apical hook formation and root growth inhibition ([7]; wild type treated with ethylene +/- PA (FIGS. 6 and 7))	ethylene dependent apical hook [7, 10]	root length compared to seedlings not treated with pamoic acid [7, 10]	petal inrolling or petal senescence [8]	expression of ethylene inducible genes following ethylene treatment [9]
CC(C)(Oc1ccc(Cl)cc1)C(=O)O [CPIB, reference compound]	eliminates DR5 expression	–	–	–	–	–	–	–	–	–	–	–	–	–
O=C(O)c1cc2ccccc2c(Cc2c(O)c(C(=O)O)cc3ccccc23)c1O [pamoic acid, Pamoic acid]	reduced or eliminated DR5 expression	both roots and shoots become agravitropic	completely destroys the gravitropic response	nearly double the length of NAA treated roots	extremely reduced	reversing the constitutive ethylene response	strictly blocks	almost completely block root growth	progressively shorter roots	strictly blocks	elimination of the ethylene dependent apical hook	significant increase in root length	no evidence of petal inrolling or petal senescence even after Day 8	also upregulated in the presence of PA; also recorded: normally upregulated following ethylene treatment even in the presence of PA
